Columns and labels:
HIV-1 AD8 strain [1] = test: Antiviral activity test using the TZM-bl cell luciferase system; details: for EC50: Human immunodeficiency virus 1, TZM-bl, 48 h
Description: TZM-bl cells were seeded on 96-well cell culture plates at a density of 1 × 10^4 cells/well and cultured overnight. Each drug was twofold serially diluted from 10,000 to 0.15 nM and treated to cells. After a 30 min incubation period, viral infection was performed with 500 TCID50 of HIV-1 AD8. Cells were cultured for 48 h after infection and luciferase activity measured using Beetle-Lysis Juice (PJK GmbH, Kleinblittersdorf, Germany) according to the manufacturer’s instructions. Briefly, the medium was removed, and cells washed three times with 200 μl PBS. Next, 100 μl Beetle-Lysis Juice containing luciferin and ATP were added to each well and incubated for 5 min with protection from sunlight. Subsequently, luciferase activity was measured using a micro beta counter (PerkinElmer, Waltham, MA) after transferring solutions to a white 96-well plate. Anti-HIV efficacy of drugs was determined based on reduced expression of luciferase relative to the virus-only treatment group.
Fig.1 Determination of antiviral activities of integrase inhibitors in the TZM-bl cell line system. Integrase inhibitors were serially diluted and incubated with 1 × 10^4 TZM-bl cells per well during 30 min, followed by infection with 500 TCID50 of HIV-1 AD8 strain. For determination of antiviral efficacy, luciferase activity was measured after 48 h of incubation. Cell culture media of non-infected and infected cells without HIV drug treatment were set as the negative and positive control, respectively.

HIV-1 AD8 strain [2] = test: p24 ELISA antiviral activity in infected MT2 cells; details: for EC50: Human immunodeficiency virus 1, MT2, 120 h; for SI value (CC50/EC50): MT2 cell system
Description: ELISA was conducted to detect HIV-1 p24 for assessment of antiviral activity using a HIV-1 p24 ELISA kit (XpressBio, Frederick, MD). To this end, MT2 cells seeded on a 96-well cell culture plate at a density of a 1 × 10^4 cells/well were infected with 500 TCID50 of HIV-1 AD8 strain. Each drug was serially diluted threefold (from 10,000 to 0.51 nM) for treatment of cells. After five days of culture at 37 °C with 5% CO2, 100 μl of culture medium was harvested and supernatant obtained by centrifugation for 5 min at 5000 rpm (8400 rcf), with storage at − 80 °C. Cell culture media of non-infected and infected cells without INI treatment were set as the negative and positive control, respectively. The ELISA procedure was conducted according to the manufacturer’s instructions. Briefly, samples were mixed with 20 μl lysis buffer, 200 μl aliquots pipetted into a microplate, and incubated for 1 h at 37 °C. After incubation, the contents of the wells were aspirated and microtitration plates washed six times with 350 μl wash buffer. Each well was treated with 100 μl detection antibody for 1 h at 37 °C, which was subsequently removed by washing under the same conditions. An aliquot (100 μl) of streptavidin-HRP conjugate was added into each well, followed by incubation at room temperature for 30 min. After washing under the same conditions, 100 μl substrate solution was immediately dispensed into each well and incubated for 30 min at room temperature with protection from direct sunlight. For termination of the reaction, 100 μl stop solution was added to each well and absorbance values at 450 nm immediately read using a microplate reader.
MT2 cells infected with 500 TCID50 of HIV-1 AD8 strain were treated with a range of concentrations of each drug. At 5 days post-infection, cell culture media were harvested for p24 ELISA. Media of non-infected and infected cells without HIV drug treatment were set as the negative or positive control, respectively.

[3] = Cell cytotoxicity by WST method (EZ-Cytox) in TZM-bl cells; type: cell-based; details: human, 2 days incubation
Description: (§1) To determine the cytotoxicity of anti-HIV drugs, cell viability was assessed via the water-soluble tetrazolium salt (WST) method using an EZ-Cytox kit (Daeil Lab Service, Seoul, Korea) according to the manufacturer’s instructions. […] Cells were treated with serial dilutions of each drug ([…] dilutions from 50,000 to 2.54 nM). On days 2 and 5 of incubation, 10 μl EZ-Cytox solution was added to each well and incubated for 2 h, followed by spectrophotometric measurement of absorbance at 540 nm.

[4] = Cell cytotoxicity by WST method (EZ-Cytox) in MT2 cells; type: cell-based; details: human, 5 days incubation
Description: as §1

HIV-1 integrase [5] = target: T1, HIV-1 integrase (Human immunodeficiency virus type 1 group M subtype B, UniProt P04585); test: Strand transfer inhibition assay (HIV-1 integrase assay kit); type: biochemical; details: read-out: strand transfer inhibitory activity
T1 construct: 100 μl IN enzyme solution was added to each well; purchased XpressBio, Frederick, MD
Description: The strand transfer assay was performed using the HIV-1 integrase assay kit (XpressBio, Frederick, MD) according to the manufacturer’s instructions. Briefly, 100 μl of 1X donor substrate DNA (DS DNA) solution was added to each well and incubated for 30 min at 37 °C. The liquid was aspirated from the wells and washed 5 times with 300 μl wash buffer, followed by incubation with 200 μl blocking buffer per well for 30 min at 37 °C. Following aspiration of the liquid, wells were washed three times with 200 μl reaction buffer. Next, 100 μl IN enzyme solution was added to each well and incubated under similar conditions followed by removal of liquid and three washes with 200 μl reaction buffer. Each test sample was fivefold serially diluted (from 1000 to 8 μM) in reaction buffer and 50 μl aliquots added per well. After 5 min incubation at room temperature, 50 μl 1X target substrate DNA (TS DNA) solution was directly added to the 50 μl test sample within the wells. Reactions were mixed by tapping the plate gently 3–5 times and incubating for 30 min at 37 °C, washed 5 times with 300 μl wash solution and incubated with 100 μl HRP antibody for 30 min at 37 °C. After washing the plate under the same conditions, 100 μl TMB peroxidase substrate solution was added per well and incubated for 10 min at room temperature. To terminate the reaction, 100 μl TMB stop solution was directly added to wells and absorbance read using a plate reader at 450 nm.
Fig.3 Strand transfer inhibition efficiency of catalytic and non-catalytic integrase inhibitors. a Schematic diagram of the strand transfer assay process. The yellow and blue boxes represent the response under conditions of no IN inhibitor or INSTI, respectively. b Integrase inhibitor compounds at a range of concentrations generated from fivefold serial dilutions were used to treat 3′-end cleaved LTR DS DNA by integrase. After incubation, TS DNA was added to each well for the strand transfer reaction. The reaction products were detected colorimetrically using a HRP-labeled antibody against modified target DNA. "No integrase" and "Integrase only" wells were set as the negative and positive control, respectively

HIV-1 integrase [6] = target: T1, HIV-1 integrase; test: 3'-processing inhibition assay (modified strand transfer assay, inhibitor pre-incubated with IN); type: biochemical; details: 20 nM IN pre-incubated 30 min
Description: To confirm the 3′-processing inhibition activity NCINI, the strand transfer inhibition assay was modified. The plate coating process with DS DNA was conducted in a similar manner. […] Reaction of integrase first with the drug before its reaction with DS DNA is a necessary step to validate the 3′-processing inhibitory activity of the compound. The integrase-inhibitor mixture was added to LTR DS DNA-conjugated 96-well plates. Subsequent steps were conducted in a similar manner as the strand transfer assay.
The subsequent steps were the same as the strand transfer assay protocol (Fig. 4a).
The 3′-processing inhibition assay was performed by modifying the protocol of the strand transfer assay. […] Before addition of LTR dsDNA, fivefold serially diluted integrase inhibitors were incubated with 20 nM integrase for 30 min. The integrase-inhibitor mixtures were treated with LTR dsDNA-conjugated 96-well plates. After incubation, target DNA was added to each well for the strand transfer reaction and the products detected colorimetrically using a HRP-labeled antibody against 3′-modified target DNA. "No integrase" and "integrase-only" wells were set as the negative and positive control, respectively

[7] = tested on: HxB2, NL4.3 and a recombinant NL4.3 strain; details: against HxB2, NL4.3 and a recombinant NL4.3 strain; cited from earlier work
[8] = target: integrase strand transfer; details: does not inhibit strand transfer; cited from earlier work

## Cc1nc2ccccc2c(-c2ccc3c4c(ccnc24)CCO3)c1[C@H](OC(C)(C)C)C(=O)O [BI 224436]
HIV-1 AD8 strain [1]
  EC50: 566 nM
HIV-1 AD8 strain [2]
  EC50: 28.7 nM
[3]
  CC50 at 2 days: > 50000 nM
[4]
  CC50 at 5 days: > 50000 nM
HIV-1 integrase [5]
  inhibition at 8 µM: 20%
HIV-1 integrase [5]; at 1000 μM
  inhibition at 1000 µM: 36%
HIV-1 integrase [6]; at 3.2 μM
  IN inhibition activity (3'-processing, modified protocol): 80.65%
HIV-1 integrase [6]; at 2000 μM
  IN inhibition activity (3'-processing, modified protocol): 87.14%
[7]
  EC50: 11 to 27 nM
[8]
  EC50: > 50000 nM

## C[C@@H]1CCO[C@H]2Cn3cc(C(=O)NCc4ccc(F)cc4F)c(=O)c(O)c3C(=O)N12 [DTG, Dolutegravir]
HIV-1 AD8 strain [1]
  EC50: 1.6 nM
HIV-1 AD8 strain [2]
  EC50: < 0.51 nM
  SI value (CC50/EC50): > 3413.60
[3]
  CC50 at 2 days: > 50000 nM
[4]
  CC50 at 5 days: 1740 nM
HIV-1 integrase [5]
  inhibition at 8 µM: > 50%

## COc1cc2c(cc1Cc1cccc(Cl)c1F)c(=O)c(C(=O)O)cn2[C@H](CO)C(C)C [EVG, Elvitegravir]
HIV-1 AD8 strain [1]
  EC50: < 0.15 nM
HIV-1 AD8 strain [2]
  EC50: < 0.51 nM
[3]
  CC50 at 2 days: 26000 nM
[4]
  CC50 at 5 days: 1260 nM

## Cc1nnc(C(=O)NC(C)(C)c2nc(C(=O)NCc3ccc(F)cc3)c(O)c(=O)n2C)o1 [RAL, Raltegravir]
HIV-1 AD8 strain [1]
  EC50: 10.4 nM
HIV-1 AD8 strain [1]; TZM-bl cell system
  SI value (CC50/EC50): > 4816.96
HIV-1 AD8 strain [2]
  EC50: 0.58 nM
  SI value (CC50/EC50): 11,075.19
[3]
  CC50 at 2 days: > 50000 nM
[4]
  CC50 at 5 days: 6420 nM
HIV-1 integrase [5]
  inhibition at 8 µM: > 50%
